These are literature values, as cited in patent US20050250828A1 (Entire Interest, priority 2004, published 2005).

For series [1] the following is noted: oral administration.

Molecules are shown by their SMILES.

For `CCOc1nc2cccc(C(=O)O)c2n1Cc1ccc(-c2ccccc2-c2nnn[nH]2)cc1` [Candesartan, 2-ethoxy-1-[[2′-(1H-tetrazol-5-yl)biphenyl-4-yl]methyl]-1H-benzimidazole-7-carboxylic acid], the “absorption when administered orally” value in series [1] is “poorly absorbed”.
`CCOc1nc2cccc(C(=O)OC(C)OC(=O)OC3CCCCC3)c2n1Cc1ccc(-c2ccccc2-c2nnn[nH]2)cc1` (racemic) [candesartan cilexetil, (±)-1-[[(cyclohexyloxy)carbonyl]oxy]ethyl-2-ethoxy-1-[[2′-(1H-tetrazol-5-yl)[1,1′biphenyl]-4-yl]methyl]-1H-benzimidazole-7-carboxylate]: the solubility in methanol result (methanol) was “sparingly soluble”. The solubility in water entry (water) is given as “sparingly soluble”.
